Data taken from paper PMC9227231, “TP-CSO: A Triptolide Prodrug for Pancreatic Cancer Treatment” (Molecules, 2022).

Tests used:
Panco2 tumor = experiment: In vivo antitumor study in Panco2 tumor-bearing mice
Protocol: The antitumor activity of the TP-CSO conjugate was evaluated on Panco2 tumor-bearing mice. First, C57 mice (20–25 g) were implanted subcutaneously with 2 × 10^6 Panco2 cells. When the tumor grew up to about 100 mm^3, the mice were orally administrated with 0.4 mg/kg TP and TP-CSO (0.2, 0.4 and 0.6 mg TP equivalent/kg) once every two days, respectively. The body weight and fatality rate were recorded. Mice in control groups were orally administrated with saline solution. The tumor volume was measured with calipers and calculated by the (1/2) (a × b²) formula (a is long diameter, b is short diameter). After 14 days of intragastric administration, the mice were sacrificed, and livers, kidney, and tumors were harvested.

[1] = Pharmacokinetics after gavage administration to rats (plasma level of free TP by LC-MS); design: species or system SD rats; conditions: Sprague-Dawley, rat, in vivo, po, 0.4 mg/kg
Protocol: To evaluate the in vivo pharmacokinetics of TP-CSO conjugate, the SD rats (250–300 g, Sprague-Dawley rat) fasted 12 h in advance and were randomized into two groups (n = 5) and respectively treated with TP (0.4 mg/kg) and TP-CSO (0.4 mg/kg, TP equivalent). The blood samples (500 µL) were collected through the ocular chorionic vein at 5, 15, 30, 60, 120, 180, 240, 360, 480 and 720 min after intragastric administration. Subsequently, the samples were immediately centrifuged at 3500 rpm for 15 min. An upper plasma sample was collected and kept at −80 °C.
Sample processing: to the plasma sample,10 µL of ferulic acid (2.5 ng/mL) was added as internal standard. The sample (100 µL) was placed in a 1.5 mL Eppendorf tube, to which 800 µL of ethyl acetate was added and vortexed for 3 min, and this was centrifuged at 12,000 rpm for 15 min. The upper solution was taken and blow dried with nitrogen at room temperature. The dried residue was dissolved in 100 µL of methanol-water (60:40, v/v) solution, vortexed for 3 min, subsequently centrifuged at 12,000 rpm for 15 min at 4 °C and the upper solution was collected into a 2 mL vial.
10 μL of sample was injected into a Watets C-18 column (2.1 mm × 50 mm, 1.8 µm) on a Sciex X500R QTOF Mass Spectrometer (UPLC-MS; Framingham, MA, USA). The column was eluted with methanol (A)/water (B) solution at a flow rate of 0.3 mL/min and a column temperature of 35 °C (0–6 min, A: 40%–90%; 6–8.1 min, A: 90%; 8.1–10 min, A: 40%). The operating conditions of UPLC-MS are as follows: electrospray ionization source (ESI), negative ionization mode; Ion spray voltage (ISV), 3500 V; Drying temperature, 325 °C; Flow rate of desolvent gas, 8.0 L/min; Atomization temperature, 350 °C. The pyrolysis energy and impact energy of TP were 120 V and 10 V, respectively, and those of ferulic acid were 90 V and 10 V, respectively. A multiple reaction monitoring mode (MRM) was used to monitor the transformation of TP from m/z [M-H] 359.1→241.1 and ferulic acid m/z [M-H] 193.1→134.1 to productions.

[2] = In vivo toxicity in healthy C57 mice
Protocol: The 30 normal C57 mice (20–25 g) were randomly divided into a normal saline group, TP (0.4 mg/kg) group and TP-CSO group (equivalent TP of 0.2, 0.4 and 0.6 mg/kg), respectively. The drugs were administered by a gavage once every two days for seven times. The body weight and fatality rate were recorded daily. On the 14th day, blood was collected from the eyes, and the organs were harvested after the mice were euthanized. A Beckman CX5 automated analyzer detected renal function indexes, liver function indexes (serum alanine aminotransferase (ALT), aspartic aminotransferase (AST)), and (blood urea nitrogen (BUN) creatinine (CRE)).

[3] = healthy C57 mice, day 14, 0.4 mg/kg TP equivalent (medium dose)

SMILES: CC(C)[C@]12O[C@H]1[C@@H]1O[C@]13[C@]1(O[C@H]1C[C@H]1C4=C(CC[C@@]13C)C(=O)OC4)[C@@H]2O [TP, Triptolide]
- tumor-inhibition rate (TIR) (Panco2 tumor; Panco2-bearing mice, oral once every two days, end of study, 0.4 mg TP equivalent/kg (medium dose)): 43.39%
- body weight vs control group (Panco2 tumor; mouse, in vivo, po, 0.4 mg/kg): obvious decrease in body weight
- AUC(0-inf) [1]: 0.061 ng·h/mL
- Cmax [1]: 0.021 ng/mL
- Tmax [1]: 15 min
- half-life [1]: 42.6 min
- BUN and CRE levels [2, 3]: significantly lower than in the control group
- serum ALT and AST levels [2, 3]: obviously higher than those in other groups
- body weight vs control group ([2]; healthy C57 mice, gavage once every two days x7, 0.4 mg/kg TP equivalent (medium dose)): obvious body weight loss but without lethality
- minimum dose causing the death of mice ([2]; mice, preliminary experiments): about 0.6 mg/kg
